Tested on: M. tuberculosis H37Rv growth inhibition
Assay: M. tuberculosis H37Rv growth inhibitors, H37Rv strain (AID 1626)
Details: for IC90: measured here: IC90 against H37Rv; for CC50: measured here: Vero cell cytotoxicity

Row | Compound | IC50 [µM] | IC90 [µM] | CC50 [µM]
1 | O=C(/C=C/c1cccc([N+](=O)[O-])c1)NC1CC2CCC1C2 (configuration not stated) | 6.04 | > 100 | –
2 | c1ccc(-c2oc3ncnc(NCCCn4ccnc4)c3c2-c2ccccc2)cc1 | 7.29 | 16.4 | 23.6
3 | Cc1ccc(-c2ccccc2NC(=O)CCl)o1 | 18.6 | > 100 | > 40
4 | CCOC(=O)c1ccc(N=Cc2nc3ccccc3n2C)cc1 | 12.7 | > 100 | –
5 | CCCOC(=O)CSc1nc(N)c(C#N)c(-c2ccco2)c1C#N | < 0.195 | 0.907 | –
6 | Cc1nc(NCc2ccc3c(c2)OCO3)c2oc3ccccc3c2n1 | 7.7 | 21.8 | –
7 | CCN1CCN(Cc2ccc(NC(=O)c3ccc(C)c(NC(=O)c4cc(-c5ccc(Br)cc5)n[nH]4)c3)cc2C(F)(F)F)CC1 | 2.16 | 2.85 | 13
8 | COc1ccc(N2CCN(c3nc(-c4cccs4)nc4ccccc34)CC2)cc1 | – | > 100 | –
9 | CCOC(=O)C(C)Sc1nnc(NC(=O)c2ccc(C)c([N+](=O)[O-])c2)s1 (configuration not stated) | 6.69 | 12.1 | –
10 | O=c1cc(-c2ccccc2)nc(N2CCN(Cc3ccc4c(c3)OCO4)CC2)[nH]1 | 89 | > 100 | –
11 | COc1cccc(C2C3=C(N=c4s/c(=C\c5cccc(O)c5)c(=O)n42)c2ccccc2CC3)c1OC (configuration not stated) | 8.79 | 13.9 | 23.9
12 | Cc1[nH]n2c(=O)c3c(nc2c1-c1ccccc1)CCCC3 | 2.89 | 4.05 | 22.8
13 | Cc1nc(NC(=O)CSc2nnc(-c3ccc4c(c3)OCO4)o2)c(Cl)cc1Cl | – | > 100 | –
14 | CCOc1ccc(NC(C(=O)Nc2cccc(C(C)=O)c2)c2ccccc2)cc1 (configuration not stated) | – | > 100 | –
15 | O=C(COC(=O)/C=C/c1cccs1)Nc1ccc2ccccc2c1 | 90.8 | > 100 | –
16 | O=C(C1CCN(c2nnc(-n3cccc3)s2)CC1)N1CCc2ccccc2C1 | 0.701 | 0.937 | –
17 | Cc1ccc(S(=O)(=O)NC(=O)Nc2nc(-c3ccc(F)c(F)c3)cs2)cc1 | 6.15 | > 100 | –
18 | Cn1ncc2c(Nc3cccc(Cl)c3)nc(Nc3cccc(Cl)c3)nc21 | 11.7 | 23.6 | 26.9
19 | O=C(Oc1ccc(Cl)cc1)c1ccc(N2CCOCC2)c([N+](=O)[O-])c1 | 1.46 | 3.16 | –
20 | CCC1CCCCN1C(=O)COC(=O)c1cc2ccccc2cc1O (configuration not stated) | 1.25 | 4.34 | –
21 | O=C(COc1ccc2c(c1)OCO2)Nc1ccc2c(c1)oc1ccccc12 | – | > 100 | > 40

Row | Compound | IC50 [µM] | IC90 [µM] | CC50 [µM]
22 | CCCC(=O)N1CCN(c2ccc(NC(=O)c3ccc([N+](=O)[O-])o3)cc2)CC1 | 1 | 2.22 | 3.1
23 | O=C(Nc1ccc(-n2cccc2)cc1)C1CC1 | < 0.195 | > 100 | –
24 | O=[N+]([O-])c1ccc(N=Nc2c(Cl)cc(O)cc2Cl)cc1 | 1.64 | 2.41 | 5.17
25 | CCCNC(=O)c1nnsc1S(=O)(=O)c1ccc(Cl)cc1 | 25.2 | 28 | 16.2
26 | Cc1ccc(-n2c(-c3ccc(Br)cc3)c[n+]3c2CCc2ccc4cccnc4c2-3)cc1 | 0.76 | 1.07 | 5.51
27 | O=C(Nc1ccc(Oc2ccccc2)cc1)C1CCCO1 (configuration not stated) | 34.2 | > 100 | –
28 | O=C(Nc1nc2ccccc2[nH]1)c1cc2ccccc2o1 | 37.2 | > 100 | > 40
29 | Cn1c(N=Nc2ccccc2)nc2ccccc21 | 1.04 | 1.89 | 16.1
30 | CCn1c(NC(=O)c2cccc(Cn3cc(Cl)cn3)c2)nc2ccccc21 | 3.65 | > 100 | > 40
31 | COc1ccc(-c2nc(CN3CCCCC3c3nccn3C)c(C)o2)c(C)c1C (configuration not stated) | 18.1 | 40.9 | 22
32 | Cc1nc2ccccc2n1/N=C/c1ccc([N+](=O)[O-])s1 | < 0.195 | < 0.195 | 5.49
33 | CCOc1ccc(CN2CCN(CC(O)Cn3c4ccccc4c4ccccc43)CC2)cc1 (configuration not stated) | 4.35 | 6.2 | 13.6
34 | O=C(CCC(=O)Nc1ccc(Oc2ccccc2)cc1)NCCO | – | > 100 | –
35 | O=C(Nc1ccc(Cl)cc1)Nc1csc([N+](=O)[O-])c1 | 79.1 | > 100 | –
36 | COc1ccc(C2(O)CC3CCC(C2)N3c2cc(C)nc(-c3ccccc3)n2)cc1 (configuration not stated) | 17.5 | 23.9 | > 40
37 | O=C(Nc1nnc(-c2ccc(Cl)cc2)o1)C1CCCCC1 | 3.32 | > 100 | > 40
38 | Cc1ccc(C)c(N=Nc2ccc(O)c3ncccc23)c1 | 68.5 | > 100 | 1.85
39 | CC/C(=C\C(=O)c1cccnc1)Nc1ccc(C)c(C)c1 | – | – | > 40
40 | CCOc1ccc(NC(=O)CCN2CCN(c3ccccc3F)CC2)cc1 | 36.3 | > 100 | –
41 | Cc1cccc(N2CCN(C(=O)c3ccc(CNc4c(N5CCC(C)CC5)c(=O)c4=O)cc3)CC2C)c1 (configuration not stated) | 15.8 | 22.2 | > 40

From PubChem BioAssay AID1626 (SRMLSC, 2009)
